Tests used:
B. thuringiensis = assay: Test Example 9: concentration of amphotericin B; assay type: cell-based; conditions: NBRC101235
B. cereus = assay: Test Example 9: concentration of amphotericin B

C[C@@H]1[C@H](O)[C@@H](C)/C=C/C=C/C=C/C=C/C=C/C=C/C=C/[C@H](O[C@@H]2O[C@H](C)[C@@H](O)[C@H](N)[C@@H]2O)C[C@@H]2O[C@](O)(C[C@@H](O)C[C@@H](O)[C@H](O)CC[C@@H](O)C[C@@H](O)CC(=O)O[C@H]1C)C[C@H](O)[C@H]2C(=O)O [Amphotericin B]
Number of colonies (B. thuringiensis; Amphotericin B 0.1 mg, 24 hours, 10^2 cfu/mL): 28 | Number of colonies (B. thuringiensis; Amphotericin B 0.1 mg, 24 hours, 10^3 cfu/mL): + | Number of colonies (B. thuringiensis; Amphotericin B 0.1 mg, 24 hours, 10^4 cfu/mL): + | Number of colonies (B. thuringiensis; Amphotericin B 0.1 mg, 24 hours, 10^5 cfu/mL): + | Number of colonies (B. thuringiensis; Amphotericin B 0.1 mg, 44 hours, 10^2 cfu/mL): 28 | Number of colonies (B. thuringiensis; Amphotericin B 0.1 mg, 44 hours, 10^3 cfu/mL): + | Number of colonies (B. thuringiensis; Amphotericin B 0.1 mg, 44 hours, 10^4 cfu/mL): + | Number of colonies (B. thuringiensis; Amphotericin B 0.1 mg, 44 hours, 10^5 cfu/mL): + | Number of colonies (B. thuringiensis; Amphotericin B 1.0 mg, 24 hours, 10^2 cfu/mL): 39 | Number of colonies (B. thuringiensis; Amphotericin B 1.0 mg, 24 hours, 10^3 cfu/mL): + | Number of colonies (B. thuringiensis; Amphotericin B 1.0 mg, 24 hours, 10^4 cfu/mL): + | Number of colonies (B. thuringiensis; Amphotericin B 1.0 mg, 24 hours, 10^5 cfu/mL): + | Number of colonies (B. thuringiensis; Amphotericin B 1.0 mg, 44 hours, 10^2 cfu/mL): 39 | Number of colonies (B. thuringiensis; Amphotericin B 1.0 mg, 44 hours, 10^3 cfu/mL): + | Number of colonies (B. thuringiensis; Amphotericin B 1.0 mg, 44 hours, 10^4 cfu/mL): + | Number of colonies (B. thuringiensis; Amphotericin B 1.0 mg, 44 hours, 10^5 cfu/mL): + | Number of colonies (B. thuringiensis; Amphotericin B 10 mg, 24 hours, 10^2 cfu/mL): 38 | Number of colonies (B. thuringiensis; Amphotericin B 10 mg, 24 hours, 10^3 cfu/mL): + | Number of colonies (B. thuringiensis; Amphotericin B 10 mg, 24 hours, 10^4 cfu/mL): + | Number of colonies (B. thuringiensis; Amphotericin B 10 mg, 24 hours, 10^5 cfu/mL): + | Number of colonies (B. thuringiensis; Amphotericin B 10 mg, 44 hours, 10^2 cfu/mL): 38 | Number of colonies (B. thuringiensis; Amphotericin B 10 mg, 44 hours, 10^3 cfu/mL): + | Number of colonies (B. thuringiensis; Amphotericin B 10 mg, 44 hours, 10^4 cfu/mL): + | Number of colonies (B. thuringiensis; Amphotericin B 10 mg, 44 hours, 10^5 cfu/mL): + | Number of colonies (B. cereus; ATCC11778, Amphotericin B 0.1 mg, 24 hours, 10^2 cfu/mL): 37 | Number of colonies (B. cereus; ATCC11778, Amphotericin B 0.1 mg, 24 hours, 10^3 cfu/mL): + | Number of colonies (B. cereus; ATCC11778, Amphotericin B 0.1 mg, 24 hours, 10^4 cfu/mL): + | Number of colonies (B. cereus; ATCC11778, Amphotericin B 0.1 mg, 24 hours, 10^5 cfu/mL): + | Number of colonies (B. cereus; ATCC11778, Amphotericin B 0.1 mg, 44 hours, 10^2 cfu/mL): 37 | Number of colonies (B. cereus; ATCC11778, Amphotericin B 0.1 mg, 44 hours, 10^3 cfu/mL): + | Number of colonies (B. cereus; ATCC11778, Amphotericin B 0.1 mg, 44 hours, 10^4 cfu/mL): + | Number of colonies (B. cereus; ATCC11778, Amphotericin B 0.1 mg, 44 hours, 10^5 cfu/mL): + | Number of colonies (B. cereus; ATCC11778, Amphotericin B 1.0 mg, 24 hours, 10^2 cfu/mL): 51 | Number of colonies (B. cereus; ATCC11778, Amphotericin B 1.0 mg, 24 hours, 10^3 cfu/mL): + | Number of colonies (B. cereus; ATCC11778, Amphotericin B 1.0 mg, 24 hours, 10^4 cfu/mL): + | Number of colonies (B. cereus; ATCC11778, Amphotericin B 1.0 mg, 24 hours, 10^5 cfu/mL): + | Number of colonies (B. cereus; ATCC11778, Amphotericin B 1.0 mg, 44 hours, 10^2 cfu/mL): 51 | Number of colonies (B. cereus; ATCC11778, Amphotericin B 1.0 mg, 44 hours, 10^3 cfu/mL): + | Number of colonies (B. cereus; ATCC11778, Amphotericin B 1.0 mg, 44 hours, 10^4 cfu/mL): + | Number of colonies (B. cereus; ATCC11778, Amphotericin B 1.0 mg, 44 hours, 10^5 cfu/mL): + | Number of colonies (B. cereus; ATCC11778, Amphotericin B 10 mg, 24 hours, 10^2 cfu/mL): 49 | Number of colonies (B. cereus; ATCC11778, Amphotericin B 10 mg, 24 hours, 10^3 cfu/mL): + | Number of colonies (B. cereus; ATCC11778, Amphotericin B 10 mg, 24 hours, 10^4 cfu/mL): + | Number of colonies (B. cereus; ATCC11778, Amphotericin B 10 mg, 24 hours, 10^5 cfu/mL): + | Number of colonies (B. cereus; ATCC11778, Amphotericin B 10 mg, 44 hours, 10^2 cfu/mL): 49 | Number of colonies (B. cereus; ATCC11778, Amphotericin B 10 mg, 44 hours, 10^3 cfu/mL): + | Number of colonies (B. cereus; ATCC11778, Amphotericin B 10 mg, 44 hours, 10^4 cfu/mL): + | Number of colonies (B. cereus; ATCC11778, Amphotericin B 10 mg, 44 hours, 10^5 cfu/mL): + | Number of colonies (B. cereus; ATCC19637, Amphotericin B 0.1 mg, 24 hours, 10^2 cfu/mL): 36 | Number of colonies (B. cereus; ATCC19637, Amphotericin B 0.1 mg, 24 hours, 10^3 cfu/mL): + | Number of colonies (B. cereus; ATCC19637, Amphotericin B 0.1 mg, 24 hours, 10^4 cfu/mL): + | Number of colonies (B. cereus; ATCC19637, Amphotericin B 0.1 mg, 24 hours, 10^5 cfu/mL): + | Number of colonies (B. cereus; ATCC19637, Amphotericin B 0.1 mg, 44 hours, 10^2 cfu/mL): 36 | Number of colonies (B. cereus; ATCC19637, Amphotericin B 0.1 mg, 44 hours, 10^3 cfu/mL): + | Number of colonies (B. cereus; ATCC19637, Amphotericin B 0.1 mg, 44 hours, 10^4 cfu/mL): + | Number of colonies (B. cereus; ATCC19637, Amphotericin B 0.1 mg, 44 hours, 10^5 cfu/mL): + | Number of colonies (B. cereus; ATCC19637, Amphotericin B 1.0 mg, 24 hours, 10^2 cfu/mL): 35 | Number of colonies (B. cereus; ATCC19637, Amphotericin B 1.0 mg, 24 hours, 10^3 cfu/mL): + | Number of colonies (B. cereus; ATCC19637, Amphotericin B 1.0 mg, 24 hours, 10^4 cfu/mL): + | Number of colonies (B. cereus; ATCC19637, Amphotericin B 1.0 mg, 24 hours, 10^5 cfu/mL): + | Number of colonies (B. cereus; ATCC19637, Amphotericin B 1.0 mg, 44 hours, 10^2 cfu/mL): 35 | Number of colonies (B. cereus; ATCC19637, Amphotericin B 1.0 mg, 44 hours, 10^3 cfu/mL): + | Number of colonies (B. cereus; ATCC19637, Amphotericin B 1.0 mg, 44 hours, 10^4 cfu/mL): + | Number of colonies (B. cereus; ATCC19637, Amphotericin B 1.0 mg, 44 hours, 10^5 cfu/mL): + | Number of colonies (B. cereus; ATCC19637, Amphotericin B 10 mg, 24 hours, 10^2 cfu/mL): 39 | Number of colonies (B. cereus; ATCC19637, Amphotericin B 10 mg, 24 hours, 10^3 cfu/mL): + | Number of colonies (B. cereus; ATCC19637, Amphotericin B 10 mg, 24 hours, 10^4 cfu/mL): + | Number of colonies (B. cereus; ATCC19637, Amphotericin B 10 mg, 24 hours, 10^5 cfu/mL): + | Number of colonies (B. cereus; ATCC19637, Amphotericin B 10 mg, 44 hours, 10^2 cfu/mL): 39 | Number of colonies (B. cereus; ATCC19637, Amphotericin B 10 mg, 44 hours, 10^3 cfu/mL): + | Number of colonies (B. cereus; ATCC19637, Amphotericin B 10 mg, 44 hours, 10^4 cfu/mL): + | Number of colonies (B. cereus; ATCC19637, Amphotericin B 10 mg, 44 hours, 10^5 cfu/mL): +
